Among the test systems are LYPLA2; ESD; LYPLA1; ABHD11.
What all share (test): competitive ABPP of LYPLA1 versus anti-target hydrolases – fluorescence, gel-based ABPP, mouse proteome, late-stage follow-up (AID 504520);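 note: soluble proteome from BW5147 murine T cells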
Common to all, as to conditions: FP-rhodamine fluorescence, stronger effect = higher value

Experiment [1] concerns the target Platelet-activating factor acetylhydrolase 2, cytoplasmic (Mus musculus) (UniProt Q8VDG7).

Calls of active or inactive are those of the source. The rule behind the calls is not given here.

Sequence of Platelet-activating factor acetylhydrolase 2, cytoplasmic (Mus musculus) (Q8VDG7 whole entry, looked up): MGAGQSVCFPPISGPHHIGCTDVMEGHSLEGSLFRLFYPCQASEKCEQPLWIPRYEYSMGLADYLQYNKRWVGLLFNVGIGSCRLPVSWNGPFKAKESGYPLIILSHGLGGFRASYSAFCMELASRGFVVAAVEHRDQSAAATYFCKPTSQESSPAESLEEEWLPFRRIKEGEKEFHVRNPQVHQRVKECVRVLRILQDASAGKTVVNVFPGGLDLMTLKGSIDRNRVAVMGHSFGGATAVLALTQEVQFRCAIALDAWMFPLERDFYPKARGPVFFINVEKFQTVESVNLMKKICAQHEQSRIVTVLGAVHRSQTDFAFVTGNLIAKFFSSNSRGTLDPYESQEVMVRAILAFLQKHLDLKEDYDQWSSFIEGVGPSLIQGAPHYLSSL

A word on the inhibition: it is the relative decrease from the control value, in per cent. As for `CCC1CCCCN1C(=O)n1ncc(C(O)(c2ccccc2)c2ccccc2)n1` (stereo not given), the inhibition is 0% (inactive) in the experiment with LYPLA2 (at 0.75 µM); 0% in the experiment on LYPLA2 (inhibition, at 0.03 µM); 0% in the experiment on LYPLA2 (inhibition, at 0.15 µM); 0% (inactive) in experiment [1] (PAFAH2, at 0.75 µM); 0% in experiment [1] (PAFAH2, inhibition, at 0.03 µM); 0% in experiment [1] (PAFAH2, inhibition, at 0.15 µM). Besides, the inhibition in the experiment on ESD (at 0.75 µM) is 0% (inactive); with ESD (inhibition, at 0.03 µM), 0%; with ESD (inhibition, at 0.15 µM), 0%; with LYPLA1 (at 0.75 µM) it was 0% (inactive); in the experiment with LYPLA1 (inhibition, at 0.03 µM) it was 0%; in the experiment on LYPLA1 (inhibition, at 0.15 µM) it was 0%. Moreover, the inhibition in the experiment on ABHD11 (at 0.75 µM) is 100%; in the experiment on ABHD11 (inhibition, at 0.03 µM), 100%; with ABHD11 (inhibition, at 0.15 µM) it was 100%.
As for `O=C(OC(c1ccccc1)c1cnn(C(=O)N2CCCCC2)n1)N1CCCCC1` (stereo not given), the inhibition with LYPLA2 (at 0.75 µM) is 25% (inactive); with LYPLA2 (inhibition, at 0.03 µM), 0%; in the experiment with LYPLA2 (inhibition, at 0.15 µM) it was 0%; in experiment [1] (PAFAH2, at 0.75 µM), 100%; in experiment [1] (PAFAH2, inhibition, at 0.03 µM), 0%; in experiment [1] (PAFAH2, inhibition, at 0.15 µM), 100%. Further, the inhibition in the experiment on ESD (at 0.75 µM) was 50% (inactive); in the experiment on ESD (inhibition, at 0.03 µM), 0%; in the experiment with ESD (inhibition, at 0.15 µM), 25%; in the experiment with LYPLA1 (at 0.75 µM) it was 100%; in the experiment with LYPLA1 (inhibition, at 0.03 µM), 100%; with LYPLA1 (inhibition, at 0.15 µM), 100%. The inhibition with ABHD11 (at 0.75 µM) is 100%; with ABHD11 (inhibition, at 0.03 µM), 100%; in the experiment on ABHD11 (inhibition, at 0.15 µM), 100%.
Turning to `O=C(N1CCCCC1)n1ncc(C(O)c2ccccc2)n1` (stereo not given), the inhibition was 0% (inactive) with LYPLA2 (at 0.75 µM); 0% in the experiment with LYPLA2 (inhibition, at 0.03 µM); 0% in the experiment with LYPLA2 (inhibition, at 0.15 µM); 0% (inactive) in experiment [1] (PAFAH2, at 0.75 µM); 0% in experiment [1] (PAFAH2, inhibition, at 0.03 µM); 0% in experiment [1] (PAFAH2, inhibition, at 0.15 µM). In addition, the inhibition in the experiment on ESD (at 0.75 µM) was 0% (inactive); with ESD (inhibition, at 0.03 µM) it was 0%; in the experiment with ESD (inhibition, at 0.15 µM), 0%; with LYPLA1 (at 0.75 µM), 100%; in the experiment with LYPLA1 (inhibition, at 0.03 µM), 50%; in the experiment on LYPLA1 (inhibition, at 0.15 µM), 50%. Also, the inhibition was 100% in the experiment on ABHD11 (at 0.75 µM); 75% with ABHD11 (inhibition, at 0.03 µM); 100% in the experiment on ABHD11 (inhibition, at 0.15 µM).
As for `O=C(N1CCCC(Cc2ccccc2)C1)n1cc(C(O)(c2ccccc2)c2ccccc2)nn1` (stereo not given), the inhibition in the experiment on LYPLA2 (at 0.75 µM) is 25% (inactive); in the experiment with LYPLA2 (inhibition, at 0.03 µM), 0%; in the experiment with LYPLA2 (inhibition, at 0.15 µM) it was 0%; in experiment [1] (PAFAH2, at 0.75 µM), 0% (inactive); in experiment [1] (PAFAH2, inhibition, at 0.03 µM), 0%; in experiment [1] (PAFAH2, inhibition, at 0.15 µM) it was 0%. In addition, the inhibition is 0% (inactive) in the experiment with ESD (at 0.75 µM); 0% with ESD (inhibition, at 0.03 µM); 0% with ESD (inhibition, at 0.15 µM); 100% in the experiment on LYPLA1 (at 0.75 µM); 0% with LYPLA1 (inhibition, at 0.03 µM); 50% in the experiment on LYPLA1 (inhibition, at 0.15 µM). In addition, the inhibition with ABHD11 (at 0.75 µM) is 100%; in the experiment on ABHD11 (inhibition, at 0.03 µM), 100%; in the experiment on ABHD11 (inhibition, at 0.15 µM) it was 100%.
With `O=C(N(c1ccccc1)c1ccccc1)n1ncc(C(O)(c2ccccc2)c2ccccc2)n1`, the inhibition in the experiment on LYPLA2 (at 0.75 µM) was 0% (inactive); with LYPLA2 (inhibition, at 0.03 µM), 0%; in the experiment on LYPLA2 (inhibition, at 0.15 µM), 0%; in experiment [1] (PAFAH2, at 0.75 µM), 25% (inactive); in experiment [1] (PAFAH2, inhibition, at 0.03 µM), 0%; in experiment [1] (PAFAH2, inhibition, at 0.15 µM), 0%. In addition, the inhibition in the experiment with ESD (at 0.75 µM) is 0% (inactive); in the experiment on ESD (inhibition, at 0.03 µM) it was 0%; in the experiment with ESD (inhibition, at 0.15 µM), 0%; in the experiment on LYPLA1 (at 0.75 µM), 0% (inactive); with LYPLA1 (inhibition, at 0.03 µM), 0%; in the experiment on LYPLA1 (inhibition, at 0.15 µM), 0%. Besides, the inhibition with ABHD11 (at 0.75 µM) was 0% (inactive); in the experiment on ABHD11 (inhibition, at 0.03 µM), 0%; in the experiment with ABHD11 (inhibition, at 0.15 µM), 0%.
For the molecule `COC1CCN(C(=O)n2ncc(C(O)(c3ccccc3)c3ccccc3)n2)CC1`, the inhibition in the experiment with LYPLA2 (at 0.75 µM) was 25% (inactive); in the experiment on LYPLA2 (inhibition, at 0.03 µM) it was 0%; in the experiment on LYPLA2 (inhibition, at 0.15 µM), 0%; in experiment [1] (PAFAH2, at 0.75 µM), 0% (inactive); in experiment [1] (PAFAH2, inhibition, at 0.03 µM), 0%; in experiment [1] (PAFAH2, inhibition, at 0.15 µM) it was 0%. Besides, the inhibition is 25% (inactive) in the experiment with ESD (at 0.75 µM); 0% in the experiment on ESD (inhibition, at 0.03 µM); 0% in the experiment with ESD (inhibition, at 0.15 µM); 100% with LYPLA1 (at 0.75 µM); 0% with LYPLA1 (inhibition, at 0.03 µM); 50% in the experiment on LYPLA1 (inhibition, at 0.15 µM). Further, the inhibition with ABHD11 (at 0.75 µM) is 100%; with ABHD11 (inhibition, at 0.03 µM), 100%; in the experiment on ABHD11 (inhibition, at 0.15 µM) it was 100%.
Consider `O=C(N(c1ccccc1)c1ccccc1)n1ncc(-c2cc(F)cc(F)c2)n1`, for which the inhibition was 0% (inactive) in the experiment with LYPLA2 (at 0.75 µM); 0% with LYPLA2 (inhibition, at 0.03 µM); 0% in the experiment on LYPLA2 (inhibition, at 0.15 µM); 50% (inactive) in experiment [1] (PAFAH2, at 0.75 µM); 0% in experiment [1] (PAFAH2, inhibition, at 0.03 µM); 0% in experiment [1] (PAFAH2, inhibition, at 0.15 µM). Further, the inhibition is 0% (inactive) in the experiment on ESD (at 0.75 µM); 0% in the experiment with ESD (inhibition, at 0.03 µM); 0% with ESD (inhibition, at 0.15 µM); 0% (inactive) in the experiment on LYPLA1 (at 0.75 µM); 0% in the experiment on LYPLA1 (inhibition, at 0.03 µM); 0% in the experiment with LYPLA1 (inhibition, at 0.15 µM). Further, the inhibition was 50% (inactive) in the experiment on ABHD11 (at 0.75 µM); 0% with ABHD11 (inhibition, at 0.03 µM); 0% in the experiment on ABHD11 (inhibition, at 0.15 µM).
Regarding `O=C(N(c1ccccc1)c1ccccc1)n1ncc(-c2ccc(-c3ccccc3)cc2)n1`, the inhibition with LYPLA2 (at 0.75 µM) is 0% (inactive); in the experiment with LYPLA2 (inhibition, at 0.03 µM) it was 0%; in the experiment with LYPLA2 (inhibition, at 0.15 µM) it was 0%; in experiment [1] (PAFAH2, at 0.75 µM) it was 75% (inactive); in experiment [1] (PAFAH2, inhibition, at 0.03 µM), 0%; in experiment [1] (PAFAH2, inhibition, at 0.15 µM), 0%. The inhibition with ESD (at 0.75 µM) was 0% (inactive); in the experiment with ESD (inhibition, at 0.03 µM), 0%; in the experiment on ESD (inhibition, at 0.15 µM), 0%; in the experiment with LYPLA1 (at 0.75 µM), 0% (inactive); in the experiment with LYPLA1 (inhibition, at 0.03 µM) it was 0%; with LYPLA1 (inhibition, at 0.15 µM), 0%. In addition, the inhibition in the experiment with ABHD11 (at 0.75 µM) was 0% (inactive); with ABHD11 (inhibition, at 0.03 µM), 0%; with ABHD11 (inhibition, at 0.15 µM), 0%.
Regarding `O=C(N(c1ccccc1)c1ccc2ccccc2c1)n1ncc(C(O)(c2ccccc2)c2ccccc2)n1`, the inhibition with LYPLA2 (at 0.75 µM) is 0% (inactive); in the experiment with LYPLA2 (inhibition, at 0.03 µM) it was 0%; with LYPLA2 (inhibition, at 0.15 µM), 0%; in experiment [1] (PAFAH2, at 0.75 µM) it was 25% (inactive); in experiment [1] (PAFAH2, inhibition, at 0.03 µM) it was 0%; in experiment [1] (PAFAH2, inhibition, at 0.15 µM) it was 0%. Further, the inhibition in the experiment with ESD (at 0.75 µM) is 0% (inactive); with ESD (inhibition, at 0.03 µM), 0%; in the experiment on ESD (inhibition, at 0.15 µM) it was 0%; in the experiment on LYPLA1 (at 0.75 µM), 0% (inactive); with LYPLA1 (inhibition, at 0.03 µM), 0%; in the experiment on LYPLA1 (inhibition, at 0.15 µM), 0%. Moreover, the inhibition is 100% in the experiment with ABHD11 (at 0.75 µM); 0% with ABHD11 (inhibition, at 0.03 µM); 100% in the experiment on ABHD11 (inhibition, at 0.15 µM).
Regarding `O=C(N1CCc2ccccc2C1)n1ncc(C(O)(c2ccccc2)c2ccccc2)n1`, the inhibition was 0% (inactive) in the experiment on LYPLA2 (at 0.75 µM); 0% with LYPLA2 (inhibition, at 0.03 µM); 0% in the experiment on LYPLA2 (inhibition, at 0.15 µM); 100% in experiment [1] (PAFAH2, at 0.75 µM); 0% in experiment [1] (PAFAH2, inhibition, at 0.03 µM); 100% in experiment [1] (PAFAH2, inhibition, at 0.15 µM). Also, the inhibition with ESD (at 0.75 µM) is 25% (inactive); in the experiment on ESD (inhibition, at 0.03 µM), 0%; in the experiment on ESD (inhibition, at 0.15 µM), 10%; with LYPLA1 (at 0.75 µM), 50% (inactive); in the experiment with LYPLA1 (inhibition, at 0.03 µM) it was 0%; with LYPLA1 (inhibition, at 0.15 µM), 0%. The inhibition in the experiment on ABHD11 (at 0.75 µM) was 100%; in the experiment with ABHD11 (inhibition, at 0.03 µM), 100%; with ABHD11 (inhibition, at 0.15 µM) it was 100%.

For the origin of these results see PubChem BioAssay AID504520 (The Scripps Research Institute Molecular Screening Center, 2011).
